Assay results reported in US8952024B2, “Herbicidal pyrimidone derivatives” (E I du Pont de Nemours and Company, priority 2009, dated 2015).

Legend:
Assay in all cases: Test B pre-/postemergence plant response
Assay type in all cases: in vivo
[1] = system: cocklebur (Xanthium strumarium)
Outline: (§1)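 Ratings reflect visual comparison with untreated controls 13 to 15 days after application, from 0 (no effect) to 100 (complete control). Application was preemergence to seeded loam/sand soil or postemergence to 1- to 4-leaf plants, with compound in a non-phytotoxic, surfactant-containing solvent.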

[2] = system: johnsongrass (Sorghum halepense)
Outline: as §1

[3] = system: green foxtail (Setaria viridis)
Outline: as §1

[4] = system: large crabgrass (Digitaria sanguinalis)
Outline: as §1

[5] = system: woolly cupgrass (Eriochloa villosa)
Outline: as §1

[6] = system: velvetleaf (Abutilon theophrasti)
Outline: as §1

kochia (Kochia scoparia) = system: kochia (Kochia scoparia)
Outline: as §1

[7] = system: giant foxtail (Setaria faberii)
Outline: as §1

[8] = system: morningglory (Ipomoea coccinea)
Outline: as §1

[9] = system: blackgrass (Alopecurus myosuroides)
Outline: as §1

[10] = system: downy bromegrass (Bromus tectorum)
Outline: as §1

[11] = system: goosegrass (Eleusine indica)
Outline: as §1

[12] = system: Surinam grass (Brachiaria decumbens)
Outline: as §1

[13] = system: yellow nutsedge (Cyperus esculentus)
Outline: as §1

wild oat (Avena fatua) = system: wild oat (Avena fatua)
Outline: as §1

corn (Zea mays) = system: corn (Zea mays)
Outline: as §1

soybean (Glycine max) = system: soybean (Glycine max)
Outline: as §1

[14] = 31 g ai/ha, postemergence, scale 0 to 100, 0 is no effect, 100 is complete control
[15] = 62 g ai/ha, postemergence, 0 is no effect, 100 is complete control, 13 to 15 days
[16] = Postemergence, 125 g ai/ha, visual rating after 13 to 15 days, scale 0 (no effect) to 100 (complete control)
[17] = Postemergence, 250 g ai/ha, scale 0 to 100 (0 no effect, 100 complete control)

CCCc1ncc(C(=O)C2=C(O)CCCC2=O)c(=O)n1-c1cccc(C)c1 [Compound 79] was tested, and the “Plant response rating, Cocklebur” value [1, 14] was 95, the “Cocklebur plant response rating (0 to 100 scale)” value [1, 15] was 98 and the “Plant response rating, Cocklebur” value [1, 16] was 98. The “Plant response rating, Cocklebur” value [1, 17] was 98, the “Plant response rating, Johnsongrass” value [2, 14] was 0 and the “Johnsongrass plant response rating (0 to 100 scale)” value [2, 15] was 65. For the same compound, the “Plant response rating, Johnsongrass” value [2, 16] was 70, the “Plant response rating, Johnsongrass” value [2, 17] was 75 and the “Plant response rating, Foxtail, Green” value [3, 14] was 60. The “Foxtail, Green plant response rating (0 to 100 scale)” value [3, 15] was 60, the “Plant response rating, Foxtail, Green” value [3, 16] was 80 and the “Plant response rating, Foxtail, Green” value [3, 17] was 98. The “Plant response rating, Crabgrass, Large” value [4, 14] was 80, the “Crabgrass, Large plant response rating (0 to 100 scale)” value [4, 15] was 85 and the “Plant response rating, Crabgrass, Large” value [4, 16] was 90. The “Plant response rating, Crabgrass, Large” value [4, 17] was 95, the “Plant response rating, Cupgrass, Woolly” value [5, 14] was 10 and the “Cupgrass, Woolly plant response rating (0 to 100 scale)” value [5, 15] was 40. For the same compound, the “Plant response rating, Cupgrass, Woolly” value [5, 16] was 65, the “Plant response rating, Cupgrass, Woolly” value [5, 17] was 75 and the “Plant response rating, Velvetleaf” value [6, 14] was 95. For the same compound, the “Velvetleaf plant response rating (0 to 100 scale)” value [6, 15] was 98, the “Plant response rating, Velvetleaf” value [6, 16] was 98 and the “Plant response rating, Velvetleaf” value [6, 17] was 100. The “Plant response rating, Kochia” value (kochia (Kochia scoparia); [14]) was 75, the “Kochia plant response rating (0 to 100 scale)” value (kochia (Kochia scoparia); [15]) was 75 and the “Plant response rating, Kochia” value (kochia (Kochia scoparia); [16]) was 75. For the same compound, the “Plant response rating, Kochia” value (kochia (Kochia scoparia); [17]) was 80, the “Plant response rating, Foxtail, Giant” value [7, 14] was 70 and the “Foxtail, Giant plant response rating (0 to 100 scale)” value [7, 15] was 75. The “Plant response rating, Foxtail, Giant” value [7, 16] was 95, the “Plant response rating, Foxtail, Giant” value [7, 17] was 95 and the “Plant response rating, Morningglory” value [8, 14] was 80. For the same compound, the “Morningglory plant response rating (0 to 100 scale)” value [8, 15] was 95, the “Plant response rating, Morningglory” value [8, 16] was 100 and the “Plant response rating, Morningglory” value [8, 17] was 100. The “Plant response rating, Blackgrass” value [9, 14] was 5, the “Blackgrass plant response rating (0 to 100 scale)” value [9, 15] was 15 and the “Plant response rating, Blackgrass” value [9, 16] was 30. For the same compound, the “Plant response rating, Blackgrass” value [9, 17] was 45, the “Plant response rating, Bromegrass, Downy” value [10, 14] was 5 and the “Bromegrass, Downy plant response rating (0 to 100 scale)” value [10, 15] was 10. The “Plant response rating, Bromegrass, Downy” value [10, 16] was 30, the “Plant response rating, Bromegrass, Downy” value [10, 17] was 65 and the “Plant response rating, Goosegrass” value [11, 14] was 45. For the same compound, the “Goosegrass plant response rating (0 to 100 scale)” value [11, 15] was 65, the “Plant response rating, Goosegrass” value [11, 16] was 70 and the “Plant response rating, Goosegrass” value [11, 17] was 80. For the same compound, the “Plant response rating, Surinam Grass” value [12, 14] was 20, the “Surinam Grass plant response rating (0 to 100 scale)” value [12, 15] was 45 and the “Plant response rating, Surinam Grass” value [12, 16] was 75. The “Plant response rating, Surinam Grass” value [12, 17] was 90, the “Plant response rating, Nutsedge, Yellow” value [13, 14] was 25 and the “Nutsedge, Yellow plant response rating (0 to 100 scale)” value [13, 15] was 60. For the same compound, the “Plant response rating, Nutsedge, Yellow” value [13, 16] was 70, the “Plant response rating, Nutsedge, Yellow” value [13, 17] was 80 and the “Plant response rating, Oat, Wild” value (wild oat (Avena fatua); [14]) was 40. For the same compound, the “Oat, Wild plant response rating (0 to 100 scale)” value (wild oat (Avena fatua); [15]) was 45, the “Plant response rating, Oat, Wild” value (wild oat (Avena fatua); [16]) was 60 and the “Plant response rating, Oat, Wild” value (wild oat (Avena fatua); [17]) was 75. The “Plant response rating, Corn” value (corn (Zea mays); [14]) was 5, the “Corn plant response rating (0 to 100 scale)” value (corn (Zea mays); [15]) was 45 and the “Plant response rating, Corn” value (corn (Zea mays); [16]) was 60. For the same compound, the “Plant response rating, Corn” value (corn (Zea mays); [17]) was 75, the “Plant response rating, Soybean” value (soybean (Glycine max); [14]) was 75 and the “Soybean plant response rating (0 to 100 scale)” value (soybean (Glycine max); [15]) was 90. For the same compound, the “Plant response rating, Soybean” value (soybean (Glycine max); [16]) was 95 and the “Plant response rating, Soybean” value (soybean (Glycine max); [17]) was 98.
